pIC50: −log10 of the molar value.
Key:
KRAS G12C = molecular target: T1, KRAS G12C (Homo sapiens, UniProt P01116, G12C); experiment: SOS1 catalyzed nucleotide exchange assay (TR-FRET); format: biochemical; conditions: GDP-loaded HIS-KRAS(G12C), 1 hour pre-incubation with compound
T1 construct: HIS-KRAS (G12C, aa 2-185, Sino biological); purchased Sino biological
Procedure: 1. SOS1 Catalyzed Nucleotide Exchange Assay
HIS-KRAS (G12C, aa 2-185, Sino biological) was diluted to […] EDTA buffer (20 mM HEPES, pH 7.4, 50 mM NaCl, 10 mM EDA, 0.01% (v/v) Tween-20) and incubated for 30 min at 25° C. The EDTA pretreated HIS-KRAS(G12C) was diluted to 12 nM in assay buffer (25 mM HEPES, pH 7.4, 120 mM NaCl, 5 mM MgCl2, 1 mM DTI, 0.01% (v/v) Tween 20, 0.1% (w/v) BSA) containing 120 nM GDP(Sigma) and Mab Anti 6HIS-Tb cryptate Gold(Cisbio) and incubated for 1 hour at 25° C. to prepare GDP-loaded HIS-KRAS(G12C). The GDP-loaded HIS-KRAS(G12C) was pre-incubation with diluted compounds in a 384-well plate (Greiner) for 1 hour, then purified SOS 1ExD (Flag tag, aa 564-1049) and BODIPY™FL GTP (Invitrogen) were added to the assay wells (Final concentration: 3 nM HIS-KRAS(G12C), 2 μM SOS1 ExD, 80 nM BODIPY™FL GTP, 21 ng/mL MAb Anti 6HS-Tb cryptate Gold) and incubated for 4 hours at 25° C. TR-FRET signals were then read on Tecan Spark multimode microplate reader. The parameters were F486: Excitation 340 (35) nm, Emission 486 (10) nm, Lag time 100 μs, Integration time […]; F515: Excitation 340 (35) nm, Emission 515 (10) nm, Lag time […], Integration time 200 s. TR-FRET ratios for each individual wells were calculated by equation: TR-FRET ratio=(Signal F515/Signal F486)*10000. Then the data were analyzed using a 4-parameter logistic model to calculate IC50 values.

[1] = system: Phospho-ERK1/2(THR202/TYR204) in NCI-H358 cells express KRAS G12C; experiment: Phospho-ERK1/2(THR202/TYR204) HTRF assay; format: cell-based; conditions: Homo sapiens; NCI-H358, 2 hours incubation; read-out: p-ERK inhibition in NCI-H358 IC50
Procedure: NCI-H358 cells express KRAS G12C were cultured in RPMI 1640 medium (Gibco) containing 10% fetal bovine serum (Gibco). Cells in culture medium were plated in 96-well plates at a concentration of 40,000 cells/well and allowed to attach overnight. The next day, culture medium was removed and added compounds diluted in assay medium (RPMI 1640, 0.1% EFBS). After 2 hours incubation in a 37° C./5% CO2 cell incubator, the assay medium was removed, then 50 μL of 1× supplemented lysis buffer (Cisbio) was added and the plates were incubated at 25° C. for 45 min with shaking. 10 μL of cell lysates from the 96-well plates were transferred to a 384-well plate (Greiner) containing 2.5 µL/well HTRF® pre-mixed antibodies (Cisbio 64AERPEH).
Incubate 4 hours at 25° C. and then read HTRF signals on Tecan Spark multimode microplate reader. The data were analyzed using a 4-parameter logistic model to calculate IC50 values.

[2] = system: NCI-H358 cells express KRAS G12C; experiment: Cell growth inhibition assay (CCK-8); format: cell-based; conditions: Homo sapiens, 144 h; NCI-H358, 6 days incubation
Procedure: 3. Cell Growth inhibition assay
NCI-H358 cells express KRAS G12C were cultured in RPMI 1640 medium (Gibco) containing 10% fetal bovine serum (Gibco). Cells in culture medium were plated in 96-well plates at a concentration of 3000 cells/well ([…]) and allowed to attach overnight. The next day, compounds were diluted in culture medium and added to the plates. After 6 days incubation in a 37° C./5% CO2 cell incubator, the medium was removed, then 100 μL of 1×CCK-8 (MCE) in culture medium was added in each well. The plates were incubated 1.5-2 hours in a 37° C./5% CO2 cell incubator. OD450 signals were read on Tecan Spark multimode microplate reader and analyzed using a 4-parameter logistic model to calculate IC50 values.

T1 sequence (P01116 2-185 isoform P01116-2 G12C): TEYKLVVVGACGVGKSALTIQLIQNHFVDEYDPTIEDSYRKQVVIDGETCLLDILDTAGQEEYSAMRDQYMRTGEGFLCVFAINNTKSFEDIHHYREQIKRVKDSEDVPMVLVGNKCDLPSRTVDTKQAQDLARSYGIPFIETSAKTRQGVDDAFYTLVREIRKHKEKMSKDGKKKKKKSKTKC

Compound | pIC50 (KRAS G12C) | pIC50 [1] | pIC50 [2]
C=C(F)C(=O)N1CCN(c2nc(OCC3(CN4CC(N(C)C)C4)CC3)nc3c2CCN(c2cccc4cccc(C)c24)C3)CC1CC#N (stereo not drawn) [Compound 75, 2-(4-(2-((1-((3-(dimethylamino)azetidin-1-yl)methyl)cyclopropyl)methoxy)-7-(8-methylnaphthalen-1-yl)-5,6,7,8-tetrahydropyrido[3,4-d]pyrimidin-4-yl)-1-(2-fluoroacryloyl)piperazin-2-yl)acetonitrile] | 8.14 | 6.39 | 6.63
C=CC(=O)N1CCN(c2nc(OCC3(CN4CC[C@@H](F)C4)CC3)nc3c2CCN(c2cccc4cccc(C)c24)C3)CC1CC#N (stereo partly drawn) [Compound 49, 2-(1-acryloyl-4-(2-((1-(((R)-3-fluoropyrrolidin-1-yl)methyl)cyclopropyl)methoxy)-7-(8-methylnaphthalen-1-yl)-5,6,7,8-tetrahydropyrido[3,4-d]pyrimidin-4-yl)piperazin-2-yl)acetonitrile] | 8.51 | 7.42 | 7.19
C=CC(=O)N1CCN(c2nc(OCC3(CN4CCCC4)CCC3)nc3c2CCN(c2cccc4cccc(C)c24)C3)CC1CC#N (stereo not drawn) [Compound 45, 2-(1-acryloyl-4-(7-(8-methylnaphthalen-1-yl)-2-((1-(pyrrolidin-1-ylmethyl)cyclobutyl)methoxy)-5,6,7,8-tetrahydropyrido[3,4-d]pyrimidin-4-yl)piperazin-2-yl)acetonitrile] | 7.88 | 6.66 | 6.23
C=C(F)C(=O)N1CCN(c2nc(OCC3(CN4CCCC4)CC3)nc3c2CCN(c2cccc4cccc(C)c24)C3)CC1CC#N (stereo not drawn) [Compound 72, 2-(1-(2-fluoroacryloyl)-4-(7-(8-methylnaphthalen-1-yl)-2-((1-(pyrrolidin-1-ylmethyl)cyclopropyl)methoxy)-5,6,7,8-tetrahydropyrido[3,4-d]pyrimidin-4-yl)piperazin-2-yl)acetonitrile] | 7.93 | 6.67 | 6.42
C=CC(=O)N1CCN(c2nc(OC[C@@H]3CC[C@H](N(C)C)C3)nc3c2CCN(c2cccc4cccc(C)c24)C3)CC1CC#N (stereo partly drawn) [Compound 22, 2-(1-acryloyl-4-(2-(((1R,3S)-3-(dimethylamino)cyclopentyl)methoxy)-7-(8-methylnaphthalen-1-yl)-5,6,7,8-tetrahydropyrido[3,4-d]pyrimidin-4-yl)piperazin-2-yl)acetonitrile] | 7.97 | 7.01 | 7.19
C=CC(=O)N1CCN(c2nc(OCC3CCCCC3N(C)C)nc3c2CCN(c2cccc4ccccc24)C3)CC1CC#N (stereo not drawn) [Compound 18, 2-(1-acryloyl-4-(2-((2-(dimethylamino)cyclohexyl)methoxy)-7-(naphthalen-1-yl)-5,6,7,8-tetrahydropyrido[3,4-d]pyrimidin-4-yl)piperazin-2-yl)acetonitrile] | 6.37 | 6.06 | 6.30
C=C(F)C(=O)N1CCN(c2nc(OCC3(CN(CC)CC)CC3)nc3c2CCN(c2cccc4cccc(C)c24)C3)CC1CC#N (stereo not drawn) [Compound 76, 2-(4-(2-((1-((diethylamino)methyl)cyclopropyl)methoxy)-7-(8-methylnaphthalen-1-yl)-5,6,7,8-tetrahydropyrido[3,4-d]pyrimidin-4-yl)-1-(2-fluoroacryloyl)piperazin-2-yl)acetonitrile] | 7.93 | 6.45 | 6.38
C=CC(=O)N1CCN(c2nc(OCC3(CN4CCCC4)CCC3)nc3c2CCN(c2cccc4ccccc24)C3)CC1CC#N (stereo not drawn) [Compound 44, 2-(1-acryloyl-4-(7-(naphthalen-1-yl)-2-((1-(pyrrolidin-1-ylmethyl)cyclobutyl)methoxy)-5,6,7,8-tetrahydropyrido[3,4-d]pyrimidin-4-yl)piperazin-2-yl)acetonitrile] | 7.48 | 6.66 | 6.13
C=C(F)C(=O)N1CCN(c2nc(OCC3(CN(C)C)CC3)nc3c2CCN(c2cccc4cccc(C)c24)C3)CC1CC#N (stereo not drawn) [Compound 78, 2-(4-(2-((1-((dimethylamino)methyl)cyclopropyl)methoxy)-7-(8-methylnaphthalen-1-yl)-5,6,7,8-tetrahydropyrido[3,4-d]pyrimidin-4-yl)-1-(2-fluoroacryloyl)piperazin-2-yl)acetonitrile] | 8.08 | 6.68 | 6.68
Cc1cccc2cccc(N3CCc4c(nc(OCC5(CN6CCCC6)CC5)nc4N4CCN(C(=O)/C=C/CN(C)C)C(CC#N)C4)C3)c12 (stereo not drawn) [Compound 86, (E)-2-(1-(4-(dimethylamino)but-2-enoyl)-4-(7-(8-methylnaphthalen-1-yl)-2-((1-(pyrrolidin-1-ylmethyl)cyclopropyl)methoxy)-5,6,7,8-tetrahydropyrido[3,4-d]pyrimidin-4-yl)piperazin-2-yl)acetonitrile] | < 6.30 | 6.88 | 6.99
CN(C)CC1(COc2nc3c(c(N4CCN(C(=O)/C=C/CF)[C@@H](CC#N)C4)n2)CCN(c2cccc4cccc(Cl)c24)C3)CC1 [Compound 84, (S,E)-2-(4-(7-(8-chloronaphthalen-1-yl)-2-((1-((dimethylamino)methyl)cyclopropyl)methoxy)-5,6,7,8-tetrahydropyrido[3,4-d]pyrimidin-4-yl)-1-(4-fluorobut-2-enoyl)piperazin-2-yl)acetonitrile] | 8.80 | 7.10 | 7.61
C=CC(=O)N1CCN(c2nc(OCC3CCCC(N(C)C)C3)nc3c2CCN(c2ccccc2C(F)(F)F)C3)CC1CC#N (stereo not drawn) [Compound 6, 2-(1-acryloyl-4-(2-((3-(dimethylamino)cyclohexyl)methoxy)-7-(2-(trifluoromethyl)phenyl)-5,6,7,8-tetrahydropyrido[3,4-d]pyrimidin-4-yl)piperazin-2-yl)acetonitrile] | 6.75 | 6.23 | 6.24
Cc1cccc2cccc(N3CCc4c(nc(OCC5(CN(C)C)CC5)nc4N4CCN(C(=O)/C=C/CF)C(CC#N)C4)C3)c12 (stereo not drawn) [Compound 77, (E)-2-(4-(2-((1-((dimethylamino)methyl)cyclopropyl)methoxy)-7-(8-methylnaphthalen-1-yl)-5,6,7,8-tetrahydropyrido[3,4-d]pyrimidin-4-yl)-1-(4-fluorobut-2-enoyl)piperazin-2-yl)acetonitrile] | 8.91 | 7.23 | 7.54
C=CC(=O)N1CCN(c2nc(OCC3(CN4CCCC4)CC3)nc3c2CCN(c2cccc4ccccc24)C3)CC1CC#N (stereo not drawn) [Compound 4, 2-(1-acryloyl-4-(7-(naphthalen-1-yl)-2-((1-(pyrrolidin-1-ylmethyl)cyclopropyl)methoxy)-5,6,7,8-tetrahydropyrido[3,4-d]pyrimidin-4-yl)piperazin-2-yl)acetonitrile] | 7.72 | 7.01 | 7.03
C=CC(=O)N1CCN(c2nc(OCC3CCCC3N(C)C)nc3c2CCN(c2cccc(Cl)c2Cl)C3)CC1CC#N (stereo not drawn) [Compound 25, 2-(1-acryloyl-4-(7-(2,3-dichlorophenyl)-2-((2-(dimethylamino)cyclopentyl)methoxy)-5,6,7,8-tetrahydropyrido[3,4-d]pyrimidin-4-yl)piperazin-2-yl)acetonitrile] | 7.52 | 6.57 | 6.78

Reference: patent US20210040089A1, “KRAS MUTANT PROTEIN INHIBITORS” (Jacobio Pharmaceuticals Co., Ltd., priority 2019, published 2021)
